From patent US20060147922A1, “Novel diagnostic and therapeutic methods and reagents therefor” (priority 2002, published 2006)
“Also recorded” adds a separate entry of the source. Blank lines part the entries; values can stand above or below the molecule they belong to. Where no end group is shown, it is not given here. [ ]: non-standard residue; d: D form. pT = C[C@@H](OP(=O)(O)O)[C@H](N)C(=O)O

Tests used:
chk2 FHA domain = molecular target: T1, chk2 FHA domain (Homo sapiens, UniProt O96017); test: GSTchk2-N pull-down of in vitro translated EDD in presence of FHA-binding phosphopeptide; conditions: pre-incubation of GSTchk2-N fusion protein with peptide
T1 construct: made in house; host or cells: GST fusion from E. coli BL21; EDDF5 by coupled in vitro transcription/translation (TNT Quick, Promega)
T1 sequence (O96017 1-225): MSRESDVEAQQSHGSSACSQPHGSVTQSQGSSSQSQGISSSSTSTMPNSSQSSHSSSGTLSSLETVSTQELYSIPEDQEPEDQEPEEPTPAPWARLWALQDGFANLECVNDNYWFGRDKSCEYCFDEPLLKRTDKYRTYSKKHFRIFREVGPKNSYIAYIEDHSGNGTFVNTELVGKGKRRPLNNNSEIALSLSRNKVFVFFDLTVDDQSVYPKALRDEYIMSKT
Description: (D) The phosphopeptide-binding interface of the chk2 FHA domain is required for EDD binding. In vitro translated ^35S-labelled EDD derivative EDDF5 (aa 889-2799) was incubated with GSTchk2-N or GSTchk2-N derivatives containing R117A or I157T substitutions, or with GST alone bound to glutathione-Sepharose beads. The incubations with GSTchk2-N or GSTchk2-N(I157T) were carried out in the presence or absence of an FHA-binding phosphopeptide at 0, 80 or 150 μM. Bound EDD was detected by SDS-PAGE and autoradiography.
GST-tagged fusion proteins were prepared from E. coli strain BL21 according to established protocols (Pharmacia Protocol Handbook). Soluble fusion proteins were bound to glutathione agarose and quantitated via Coomassie blue staining against protein standards. 35S-labelled EDD protein and mutants or SRC-1 were synthesised in a coupled in vitro transcription/translation system (TNT Quick, Promega) and 10-20 μl reaction mixture was diluted in 1% Triton X-100 lysis buffer (Callaghan et al, Oncogene 17, 3479-3491, 1998) and incubated with 5 μg of GST, GST-importin α5, GST-PR(CDE) or GST-CIB coupled to glutathione agarose beads at 4° C. for 2 h. Beads were collected by centrifugation, washed extensively in lysis buffer and resuspended in SDS-PAGE sample buffer. After boiling, bound protein was visualised following SDS-PAGE and autoradiography. […]

EDD-chk2 interaction = test: chk2 immunoprecipitation / GSTchk2-N pull-down of EDD from MCF-7 nuclear extracts after DNA damaging agents; assay type: cell-based, human; conditions: for amount of EDD associating with chk2: MCF-7 nuclear extracts, phleomycin 100 μg/ml or hydroxyurea 2 mM
Description: Nuclear extracts from MCF-7 cells that had been cultured in the presence of the radiomimetic phleomycin (100 μg per ml) or from control MCF-7 cells were immunoprecipitated with polyclonal CHK2 antibody (N17) or incubated with goat IgG as a negative control. Following precipitation of immune complexes and extensive washing, bound proteins were separated by SDS-PAGE and western blofted for EDD or CHK2.
(C) Nuclear extracts from MCF-7 cells that had been cultured in the presence of phleomycin (100 μg per ml) or from control MCF-7 cells were incubated with GSTCHK2-N or with GST alone bound to glutathione-Sepharose beads. Bound proteins were separated by SDS-PAGE and immunoblotted for EDD and GST.
(§1) (B) Interactions between EDD, BRCA2 and chk2 are modified in response to DNA damaging agents. Nuclear extracts from MCF-7 cells that had been cultured in the presence of the radiomimetic phleomycin or the UV mimic hydroxyurea (HU), or from control MCF-7 cells, were subjected to immunoprecipitation with polyclonal chk2 antibody (N17). Following precipitation of immune complexes and extensive washing, bound proteins were separated by SDS-PAGE and western blotted for EDD, BRCA2 or chk2.
(§2) MCF-7 cells were incubated in RPMI containing 0.5% foetal bovine serum for 18 h before addition of phleomycin (Cayla, France) at 100 μg/ml, hydroxyurea (Calbiochem, CA, USA) at 2 mM or PBS vehicle, for 6 h. Cells were harvested for total protein or nuclear protein extracts as described above.

BRCA2-chk2 interaction = test: chk2 immunoprecipitation, western blot for BRCA2, from MCF-7 nuclear extracts after DNA damaging agents; assay type: cell-based, human; conditions: phleomycin or hydroxyurea
From the text: as §1, §2

PR B = molecular target: T2, PR B (Homo sapiens, UniProt P06401); test: Nuclear receptor transactivation assay (MMTV-luciferase reporter); assay type: cell-based; conditions: HEK 293 cells, 24 h
T2 sequence (P06401 1-933): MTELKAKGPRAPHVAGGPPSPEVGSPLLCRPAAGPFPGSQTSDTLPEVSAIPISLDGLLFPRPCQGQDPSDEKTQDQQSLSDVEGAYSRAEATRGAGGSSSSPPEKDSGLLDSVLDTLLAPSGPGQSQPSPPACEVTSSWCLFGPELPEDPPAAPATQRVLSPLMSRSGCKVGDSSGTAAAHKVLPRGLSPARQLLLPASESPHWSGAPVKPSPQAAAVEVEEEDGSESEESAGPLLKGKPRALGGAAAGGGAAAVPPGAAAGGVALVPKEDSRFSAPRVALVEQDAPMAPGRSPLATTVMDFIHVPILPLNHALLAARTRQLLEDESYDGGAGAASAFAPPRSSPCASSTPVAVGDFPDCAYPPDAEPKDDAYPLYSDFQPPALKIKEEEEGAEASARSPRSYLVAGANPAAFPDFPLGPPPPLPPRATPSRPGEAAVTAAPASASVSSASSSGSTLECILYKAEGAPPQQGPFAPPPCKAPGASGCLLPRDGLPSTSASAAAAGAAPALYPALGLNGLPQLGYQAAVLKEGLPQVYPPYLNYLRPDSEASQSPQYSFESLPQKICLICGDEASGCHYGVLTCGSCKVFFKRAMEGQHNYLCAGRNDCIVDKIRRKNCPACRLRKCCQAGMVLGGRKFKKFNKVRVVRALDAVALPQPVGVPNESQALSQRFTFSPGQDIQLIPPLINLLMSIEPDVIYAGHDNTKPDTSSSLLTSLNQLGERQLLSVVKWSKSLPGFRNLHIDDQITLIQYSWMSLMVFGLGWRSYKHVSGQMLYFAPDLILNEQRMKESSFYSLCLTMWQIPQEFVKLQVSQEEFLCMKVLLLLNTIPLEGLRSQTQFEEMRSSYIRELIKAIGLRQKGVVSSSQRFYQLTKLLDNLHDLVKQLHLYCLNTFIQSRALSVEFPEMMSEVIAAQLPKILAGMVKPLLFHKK
Description: (D) Effect of EDD on response to the synthetic progestin ORG2058. HEK 293 cells were transfected for reporter assay along with a transfection control plasmid (pRL-TK). Cells were harvested for luciferase assay following 24 h treatment with increasing concentrations of ORG2058.
HEK 293 or COS7 cells were plated in 6-well plates (2×10^5 cells/well) and the medium changed to 2% charcoal-stripped FCS the following day. Transfection was carried out using 3-4 μl Fugene 6 Reagent (Roche) with 1-2 μg DNA comprised of 90 ng receptor expression vector, 450 ng luciferase reporter vector and 1.2 μg EDD, EDDM or SRC-1 cDNAs in either pRcCMV or pSG5, or empty vector, and 200 ng GFP expression vector pGFP20. […] In some experiments cell number was monitored using the CellTiter96® Proliferation Assay (Promega Corp., Madison, USA). Cells in 6-well plates were analysed for GFP expression by fluorescence microscopy to determine transfection efficiency and also used for preparation of protein lysates so that protein expression levels of various constructs could be compared. […] In some experiments pRSV-β-gal or pRL-TK (Promega Corp., Madison, USA) vectors were transfected in place of pGFP20 and transfection efficiency monitored by assaying for β-galactosidase or Renilla luciferase activity respectively.

PR(CDE) = molecular target: T3, PR(CDE) (Homo sapiens, UniProt P06401); test: GST-PR(CDE) pull-down of in vitro translated EDDF1 or SRC-1; assay type: binding; conditions: in vitro assays (data not shown)
T3 construct: PR(CDE) (aa 456-933) regions into pGEX4T2 for GST fusion protein expression; made in house; host or cells: GST fusion from E. coli BL21; EDDF1 / SRC-1 by coupled in vitro transcription/translation (TNT Quick, Promega)
T3 sequence (P06401 456-933): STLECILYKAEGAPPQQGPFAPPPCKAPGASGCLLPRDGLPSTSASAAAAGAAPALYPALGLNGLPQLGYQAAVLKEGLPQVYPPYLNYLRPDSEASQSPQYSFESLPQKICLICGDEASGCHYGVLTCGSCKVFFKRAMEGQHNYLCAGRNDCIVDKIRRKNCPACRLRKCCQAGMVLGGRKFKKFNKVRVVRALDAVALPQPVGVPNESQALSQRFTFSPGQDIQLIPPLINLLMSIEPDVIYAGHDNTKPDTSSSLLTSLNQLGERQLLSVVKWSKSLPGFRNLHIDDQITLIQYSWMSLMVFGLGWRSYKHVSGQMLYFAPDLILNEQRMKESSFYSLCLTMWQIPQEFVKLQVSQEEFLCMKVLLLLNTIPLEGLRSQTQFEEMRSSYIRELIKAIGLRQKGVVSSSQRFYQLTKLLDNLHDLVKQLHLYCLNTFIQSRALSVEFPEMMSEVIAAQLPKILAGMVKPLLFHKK

EDD-CIB interaction = test: GST-CIB pull-down of EDD from MCF-7 nuclear extracts after DNA damaging agents; assay type: cell-based, human
Description: (D) Interaction of EDD and CIB in HEK 293 and MCF-7 cells. Left, HEK 293 cells overexpressing mutant EDD were transfected with a plasmid encoding Flag-tagged CIB or empty vector (vec). Extracts from these cells were subjected to immunoprecipitation using anti-FLAG Ab M2. Right, nuclear extracts prepared from MCF-7 cells following treatment with DNA damage agents phleomycin (Phleo) or hydroxyurea (HU) were incubated with either GST or GST-CIB fusion protein bound to glutathione-Sepharose beads. Bound proteins from both procedures were analysed by SDS-PAGE and western blotted for EDD and amounts bound are indicated as percentages relative to input.
For GST fusion protein pull-down of endogenous or recombinant EDD from cell lysates, 0.5 to 1 mg total protein was incubated with 5 μg GST or GST fusion protein bound to glutathione beads for 1-2 h at 4° C. Beads were washed extensively in 1% Triton X-100 lysis buffer and bound proteins resolved by SDS-PAGE and detected by immunoblotting with EDD antisera (Callaghan et al, Oncogene 17, 3479-3491, 1998). For immunoprecipitation, 10 μl importin α5 antisera (Peter Palese, Mount Sinai School of Medicine) was incubated with 0.5 to 1 mg cell lysate (4° C. for 1 h). Antibody conjugates were captured on protein A sepharose beads (4° C. for 1 h) and washed extensively in lysis buffer. […]

peptide concentration that abolished binding between EDD and chk2-N (chk2 FHA domain): greater than 50 μM
Molecule: RWFDT(P)YLIRR: phosphopeptide that binds strongly to the FHA domain (RWFD[pT]YLIRR)

Molecule: NC(=O)NO [hydroxyurea]
amount of EDD associating with chk2 (EDD-chk2 interaction): no effect on the association with EDD | amount of BRCA2 associated with chk2 (BRCA2-chk2 interaction): considerably reduced

Molecule: CCC1CC2C3CCC4=CC(=O)CCC4C3CCC2(C)C1C(=O)CO (centres unmarked) [ORG2058]
ORG2058 concentration at which that maximal response was exceeded (PR B; with EDD overexpression): 100 pM | ORG2058 concentration giving maximal response (luciferase activity) (PR B; without EDD transfection): 10 nM | effect of PR ligand on interactions between PR(CDE) and SRC-1 or EDDF1 (PR(CDE)): not affected

Molecule: phleomycin
mobility and levels of EDD protein (EDD-chk2 interaction; MCF-7 nuclear extracts after treatment): no change in either the mobility or levels of EDD protein | amount of EDD associating with chk2 (EDD-chk2 interaction): considerably reduced; also recorded: diminished; also recorded: Decreased association between EDD and CHK2 | EDD protein levels (EDD-CIB interaction; MCF-7 cells after treatment): unchanged | association between EDD and CIB (EDD-CIB interaction; MCF-7 cells, phleomycin 100 μg/ml 6 h, vs untreated or hydroxyurea-treated cells): significantly less association between EDD and CIB; also recorded: decrease in the amount of associating EDD | amount of BRCA2 associated with chk2 (BRCA2-chk2 interaction): no effect on the amount of BRCA2 associated with chk2
